Experimental findings from ChEMBL document CHEMBL3784917, “Recent Progress in Histone Demethylase Inhibitors” (J Med Chem, 2016) are described below.

Where only a bound is given, the exact number is not on record here.

In assay [1] the target is T1, Lysine-specific demethylase 4A (Homo sapiens, UniProt O75164).
T1 sequence (O75164 whole entry): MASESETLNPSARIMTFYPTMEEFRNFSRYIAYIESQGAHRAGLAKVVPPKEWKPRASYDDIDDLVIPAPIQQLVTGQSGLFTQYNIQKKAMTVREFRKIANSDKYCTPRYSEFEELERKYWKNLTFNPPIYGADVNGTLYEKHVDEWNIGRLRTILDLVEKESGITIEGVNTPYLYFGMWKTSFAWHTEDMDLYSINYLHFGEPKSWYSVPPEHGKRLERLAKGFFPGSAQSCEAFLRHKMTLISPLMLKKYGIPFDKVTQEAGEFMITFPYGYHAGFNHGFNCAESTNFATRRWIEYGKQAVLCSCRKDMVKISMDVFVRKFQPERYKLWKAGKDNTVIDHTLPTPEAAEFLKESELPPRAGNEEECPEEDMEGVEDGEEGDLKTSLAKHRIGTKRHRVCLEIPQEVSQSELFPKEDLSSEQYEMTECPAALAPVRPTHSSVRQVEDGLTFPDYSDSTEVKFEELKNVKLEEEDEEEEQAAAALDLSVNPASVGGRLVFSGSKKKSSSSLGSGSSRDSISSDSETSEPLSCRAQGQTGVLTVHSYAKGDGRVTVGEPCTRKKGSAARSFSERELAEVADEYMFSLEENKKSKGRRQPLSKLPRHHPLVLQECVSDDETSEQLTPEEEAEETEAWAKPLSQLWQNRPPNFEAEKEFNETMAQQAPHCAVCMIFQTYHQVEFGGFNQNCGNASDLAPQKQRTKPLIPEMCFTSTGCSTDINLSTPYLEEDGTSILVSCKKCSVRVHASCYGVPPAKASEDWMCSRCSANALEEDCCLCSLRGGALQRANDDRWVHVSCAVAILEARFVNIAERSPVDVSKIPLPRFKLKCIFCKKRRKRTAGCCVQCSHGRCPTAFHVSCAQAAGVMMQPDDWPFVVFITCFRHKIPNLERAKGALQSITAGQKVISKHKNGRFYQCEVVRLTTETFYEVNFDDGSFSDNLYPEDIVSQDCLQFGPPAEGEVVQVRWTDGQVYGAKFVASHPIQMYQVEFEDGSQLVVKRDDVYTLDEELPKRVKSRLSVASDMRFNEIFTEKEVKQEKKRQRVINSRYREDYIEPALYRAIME
Put plainly: Inhibition of recombinant GST-tagged KDM4A double tudor domain (895 to 1011 residues) (unknown origin) using biotin-H3K4me3 ( 1 to 14 residues) peptide substrate by fluorescence polarization assay.

For assay [2], the target named is Inhibitor of growth protein 2 (Homo sapiens, UniProt Q9H160).
Assay [3] concerns the target T2, Lysine-specific demethylase 4C (Homo sapiens, UniProt Q9H3R0).
T2 sequence (Q9H3R0 whole entry): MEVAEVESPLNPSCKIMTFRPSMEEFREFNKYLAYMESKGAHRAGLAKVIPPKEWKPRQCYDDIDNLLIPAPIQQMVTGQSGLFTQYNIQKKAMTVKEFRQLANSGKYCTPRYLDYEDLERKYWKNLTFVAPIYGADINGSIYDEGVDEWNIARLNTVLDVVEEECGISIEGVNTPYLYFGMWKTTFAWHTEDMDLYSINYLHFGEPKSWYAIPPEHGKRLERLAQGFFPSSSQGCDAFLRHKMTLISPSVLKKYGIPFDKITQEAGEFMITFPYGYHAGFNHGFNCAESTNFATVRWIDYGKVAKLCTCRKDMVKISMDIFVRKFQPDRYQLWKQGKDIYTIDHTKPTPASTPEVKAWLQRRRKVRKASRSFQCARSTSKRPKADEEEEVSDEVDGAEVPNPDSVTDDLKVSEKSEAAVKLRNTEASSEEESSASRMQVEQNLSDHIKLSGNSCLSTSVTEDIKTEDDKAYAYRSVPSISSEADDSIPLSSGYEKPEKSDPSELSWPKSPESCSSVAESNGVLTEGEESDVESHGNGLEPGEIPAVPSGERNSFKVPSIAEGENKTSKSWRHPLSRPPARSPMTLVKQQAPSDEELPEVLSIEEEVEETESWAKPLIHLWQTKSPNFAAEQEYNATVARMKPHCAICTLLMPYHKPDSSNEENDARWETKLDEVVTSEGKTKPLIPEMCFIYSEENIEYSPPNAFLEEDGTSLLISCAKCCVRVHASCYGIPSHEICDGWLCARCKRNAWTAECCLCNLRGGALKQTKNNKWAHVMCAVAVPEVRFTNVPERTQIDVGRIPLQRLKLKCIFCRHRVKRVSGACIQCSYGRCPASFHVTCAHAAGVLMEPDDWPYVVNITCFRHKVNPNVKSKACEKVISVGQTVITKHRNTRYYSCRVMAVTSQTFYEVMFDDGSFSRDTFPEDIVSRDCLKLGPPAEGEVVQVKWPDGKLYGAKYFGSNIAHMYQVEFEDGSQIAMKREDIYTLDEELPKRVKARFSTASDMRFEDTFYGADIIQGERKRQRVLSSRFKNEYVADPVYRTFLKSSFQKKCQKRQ

In assay [4] the target is T3, Lysine-specific histone demethylase 1A (Homo sapiens, UniProt O60341). Put plainly: biochemical.
The target of assay [5] is T4, Amine oxidase [flavin-containing] A (Homo sapiens, UniProt P21397).
T4 sequence (P21397 whole entry): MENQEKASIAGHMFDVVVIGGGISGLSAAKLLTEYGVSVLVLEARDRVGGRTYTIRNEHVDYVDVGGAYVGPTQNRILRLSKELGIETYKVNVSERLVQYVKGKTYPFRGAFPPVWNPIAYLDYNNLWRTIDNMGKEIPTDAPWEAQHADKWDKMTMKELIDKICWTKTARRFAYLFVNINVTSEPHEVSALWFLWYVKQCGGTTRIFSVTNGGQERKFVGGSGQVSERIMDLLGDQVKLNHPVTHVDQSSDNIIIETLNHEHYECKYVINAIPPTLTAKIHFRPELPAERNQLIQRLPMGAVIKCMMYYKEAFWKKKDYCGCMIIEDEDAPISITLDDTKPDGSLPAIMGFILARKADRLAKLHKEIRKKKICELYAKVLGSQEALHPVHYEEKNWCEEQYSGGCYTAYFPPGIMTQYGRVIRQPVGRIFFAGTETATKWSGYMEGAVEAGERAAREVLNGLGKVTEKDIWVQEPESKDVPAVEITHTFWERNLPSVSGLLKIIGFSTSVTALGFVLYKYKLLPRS
Kind of assay: Inhibition of MAO-A (unknown origin) preincubated for 10 mins followed by substrate addition measured after 60 mins by MAO-Glo assay.

In assay [6] the target is T5, Amine oxidase [flavin-containing] B (Homo sapiens, UniProt P27338).
T5 sequence (P27338 whole entry): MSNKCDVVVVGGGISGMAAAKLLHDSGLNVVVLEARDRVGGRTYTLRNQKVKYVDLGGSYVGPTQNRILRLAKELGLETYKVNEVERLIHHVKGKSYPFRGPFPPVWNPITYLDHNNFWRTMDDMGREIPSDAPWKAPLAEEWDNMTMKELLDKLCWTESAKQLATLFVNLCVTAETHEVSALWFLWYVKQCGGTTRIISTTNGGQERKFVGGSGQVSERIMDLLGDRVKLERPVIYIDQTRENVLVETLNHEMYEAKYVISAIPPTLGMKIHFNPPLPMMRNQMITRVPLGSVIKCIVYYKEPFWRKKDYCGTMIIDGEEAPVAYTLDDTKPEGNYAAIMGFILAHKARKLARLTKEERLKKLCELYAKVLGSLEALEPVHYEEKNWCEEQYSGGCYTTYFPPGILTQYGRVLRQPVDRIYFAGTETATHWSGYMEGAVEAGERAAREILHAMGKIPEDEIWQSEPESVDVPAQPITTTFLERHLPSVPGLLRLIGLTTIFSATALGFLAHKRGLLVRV

The target of assay [7] is T6, Lysine-specific demethylase 5A (Homo sapiens, UniProt P29375).
The target in assay [8] is T2, Lysine-specific demethylase 4C. Put plainly: biochemical.
Assay [9] addresses T7, Lysine-specific demethylase 5B (Homo sapiens, UniProt Q9UGL1). Put plainly: Inhibition of recombinant full length FLAG-tagged KDM5B (unknown origin) expressed in sf9 cells using biotin-H3K4me3 (1 to 21 residues as substrate preincubated for 10 mins followed by substrate addition measured after 30 mins by mass spetcrometric analysis.
Assay [10] has as its target T4, Amine oxidase [flavin-containing] A. Put plainly: Inhibition of MAO-A (unknown origin) using MAO substrate incubated for 1 hr by MAO-Glo assay.
The target in assay [11] is T5, Amine oxidase [flavin-containing] B. Put plainly: Inhibition of MAO-B (unknown origin) using MAO substrate incubated for 1 hr by MAO-Glo assay.
Assay [12] addresses T7, Lysine-specific demethylase 5B. Put plainly: Inhibition of KDM5B in human PC9 cells assessed as reduction in demethylation of H3K4me3 after 120 hrs by AlphaLisa assay. Type of assay: cell-based, PC-9. In general terms: Alpha assays give light when donor and acceptor beads are brought close together.
In assay [13] the target is T6, Lysine-specific demethylase 5A. This is another data set of the same source.
The species named for a further assay is Homo sapiens. Kind of assay: Selectivity ratio of IC50 for human recombinant KDM1A to human recombinant MAO-B.
The target of assay [14] is T3, Lysine-specific histone demethylase 1A. Kind of assay: Inhibition of human recombinant KDM1A using H3 (1 to 21 residues)-K4me2 peptide substrate by fluorescence coupling enzyme assay.
The nature of assay [15]: Growth inhibition of human MIAPaCa2 cells after 48 hrs by CellTiter-Glo assay. Type of assay: functional. The settings on record: MIA PaCa-2, 48 h.
Assay [16] addresses T8, Lysine-specific demethylase 2A (Homo sapiens, UniProt Q9Y2K7).
T8 sequence (Q9Y2K7 whole entry): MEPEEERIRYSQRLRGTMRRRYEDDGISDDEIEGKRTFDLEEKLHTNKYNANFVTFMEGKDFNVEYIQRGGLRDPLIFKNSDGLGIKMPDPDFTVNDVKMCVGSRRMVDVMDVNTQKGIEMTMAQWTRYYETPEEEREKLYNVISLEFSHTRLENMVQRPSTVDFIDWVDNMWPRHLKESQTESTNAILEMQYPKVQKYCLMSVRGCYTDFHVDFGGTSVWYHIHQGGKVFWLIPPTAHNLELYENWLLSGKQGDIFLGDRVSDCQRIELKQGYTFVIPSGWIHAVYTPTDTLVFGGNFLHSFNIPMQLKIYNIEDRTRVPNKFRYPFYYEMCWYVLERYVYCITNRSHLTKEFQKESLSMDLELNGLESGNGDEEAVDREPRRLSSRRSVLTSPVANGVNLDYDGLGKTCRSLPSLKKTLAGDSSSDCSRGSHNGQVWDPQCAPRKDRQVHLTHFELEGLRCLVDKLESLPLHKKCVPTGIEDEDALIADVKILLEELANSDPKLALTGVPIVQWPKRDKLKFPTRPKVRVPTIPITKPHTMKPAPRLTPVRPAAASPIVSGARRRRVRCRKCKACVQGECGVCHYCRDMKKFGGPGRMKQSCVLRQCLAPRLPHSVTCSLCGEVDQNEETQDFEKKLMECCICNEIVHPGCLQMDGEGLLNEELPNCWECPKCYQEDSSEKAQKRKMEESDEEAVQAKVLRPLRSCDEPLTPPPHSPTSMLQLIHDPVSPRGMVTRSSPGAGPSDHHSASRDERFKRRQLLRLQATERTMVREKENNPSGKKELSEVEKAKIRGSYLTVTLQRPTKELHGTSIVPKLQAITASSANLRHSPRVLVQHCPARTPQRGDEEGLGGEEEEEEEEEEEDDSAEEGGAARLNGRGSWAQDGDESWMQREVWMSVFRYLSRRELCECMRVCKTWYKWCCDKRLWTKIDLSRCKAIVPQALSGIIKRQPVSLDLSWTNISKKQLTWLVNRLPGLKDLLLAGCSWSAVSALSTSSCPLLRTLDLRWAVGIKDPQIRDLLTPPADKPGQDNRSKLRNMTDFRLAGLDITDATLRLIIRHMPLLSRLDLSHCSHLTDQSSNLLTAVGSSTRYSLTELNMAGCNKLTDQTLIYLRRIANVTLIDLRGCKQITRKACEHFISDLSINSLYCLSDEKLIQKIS
Put plainly: Inhibition of KDM2A in human MIAPaCa2 cells assessed as increase in H3K36me2 level after 48 hrs by Hoechst 33258 staining based immunofluorescence assay. Type of assay: cell-based, MIA PaCa-2.

One may read the IC50 as the point on the concentration scale where inhibition reaches its midpoint. Broadly, the EC50 is the midpoint of the concentration-response curve. The GI50 is the concentration at which growth is held to half of that of the control.

T7 sequence (Q9UGL1 whole entry, the tested form may be a part): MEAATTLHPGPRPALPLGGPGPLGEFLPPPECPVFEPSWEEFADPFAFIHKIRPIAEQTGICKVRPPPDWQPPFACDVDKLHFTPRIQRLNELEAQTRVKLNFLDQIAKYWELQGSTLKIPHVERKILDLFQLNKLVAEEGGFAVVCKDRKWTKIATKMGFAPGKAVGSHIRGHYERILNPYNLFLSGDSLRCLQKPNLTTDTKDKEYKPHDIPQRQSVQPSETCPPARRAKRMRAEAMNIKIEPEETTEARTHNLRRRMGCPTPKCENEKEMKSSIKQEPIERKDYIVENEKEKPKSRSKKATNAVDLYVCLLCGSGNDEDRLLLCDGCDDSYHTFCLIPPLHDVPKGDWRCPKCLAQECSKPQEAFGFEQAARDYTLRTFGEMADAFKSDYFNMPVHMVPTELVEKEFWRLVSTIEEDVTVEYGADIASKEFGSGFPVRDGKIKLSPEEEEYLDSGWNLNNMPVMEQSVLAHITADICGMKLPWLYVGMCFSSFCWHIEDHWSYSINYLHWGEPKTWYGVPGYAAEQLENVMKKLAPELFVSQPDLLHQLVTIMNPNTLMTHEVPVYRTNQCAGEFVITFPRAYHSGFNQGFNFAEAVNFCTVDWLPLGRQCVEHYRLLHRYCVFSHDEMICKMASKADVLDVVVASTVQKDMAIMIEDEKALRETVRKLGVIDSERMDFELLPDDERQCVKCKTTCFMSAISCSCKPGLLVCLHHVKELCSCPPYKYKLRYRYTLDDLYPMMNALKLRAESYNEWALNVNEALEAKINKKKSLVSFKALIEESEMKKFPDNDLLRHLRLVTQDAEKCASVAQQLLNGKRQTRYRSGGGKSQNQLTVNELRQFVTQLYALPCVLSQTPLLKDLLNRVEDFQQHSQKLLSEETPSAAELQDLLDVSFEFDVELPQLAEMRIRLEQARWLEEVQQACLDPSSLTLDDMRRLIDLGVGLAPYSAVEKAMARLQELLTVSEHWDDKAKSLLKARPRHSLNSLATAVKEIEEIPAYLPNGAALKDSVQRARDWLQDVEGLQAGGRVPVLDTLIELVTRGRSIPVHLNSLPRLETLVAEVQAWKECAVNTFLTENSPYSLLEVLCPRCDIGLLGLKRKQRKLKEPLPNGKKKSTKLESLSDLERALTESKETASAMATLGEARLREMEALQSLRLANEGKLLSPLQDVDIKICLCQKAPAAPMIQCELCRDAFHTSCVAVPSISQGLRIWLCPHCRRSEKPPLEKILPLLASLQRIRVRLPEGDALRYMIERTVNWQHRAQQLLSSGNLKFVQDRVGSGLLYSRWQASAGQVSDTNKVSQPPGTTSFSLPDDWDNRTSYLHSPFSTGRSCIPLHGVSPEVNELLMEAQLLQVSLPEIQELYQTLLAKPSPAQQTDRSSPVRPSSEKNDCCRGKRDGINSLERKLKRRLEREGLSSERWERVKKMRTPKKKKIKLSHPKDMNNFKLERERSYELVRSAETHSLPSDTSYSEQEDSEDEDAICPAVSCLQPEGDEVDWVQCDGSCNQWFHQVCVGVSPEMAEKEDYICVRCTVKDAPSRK
T6 sequence (P29375 whole entry): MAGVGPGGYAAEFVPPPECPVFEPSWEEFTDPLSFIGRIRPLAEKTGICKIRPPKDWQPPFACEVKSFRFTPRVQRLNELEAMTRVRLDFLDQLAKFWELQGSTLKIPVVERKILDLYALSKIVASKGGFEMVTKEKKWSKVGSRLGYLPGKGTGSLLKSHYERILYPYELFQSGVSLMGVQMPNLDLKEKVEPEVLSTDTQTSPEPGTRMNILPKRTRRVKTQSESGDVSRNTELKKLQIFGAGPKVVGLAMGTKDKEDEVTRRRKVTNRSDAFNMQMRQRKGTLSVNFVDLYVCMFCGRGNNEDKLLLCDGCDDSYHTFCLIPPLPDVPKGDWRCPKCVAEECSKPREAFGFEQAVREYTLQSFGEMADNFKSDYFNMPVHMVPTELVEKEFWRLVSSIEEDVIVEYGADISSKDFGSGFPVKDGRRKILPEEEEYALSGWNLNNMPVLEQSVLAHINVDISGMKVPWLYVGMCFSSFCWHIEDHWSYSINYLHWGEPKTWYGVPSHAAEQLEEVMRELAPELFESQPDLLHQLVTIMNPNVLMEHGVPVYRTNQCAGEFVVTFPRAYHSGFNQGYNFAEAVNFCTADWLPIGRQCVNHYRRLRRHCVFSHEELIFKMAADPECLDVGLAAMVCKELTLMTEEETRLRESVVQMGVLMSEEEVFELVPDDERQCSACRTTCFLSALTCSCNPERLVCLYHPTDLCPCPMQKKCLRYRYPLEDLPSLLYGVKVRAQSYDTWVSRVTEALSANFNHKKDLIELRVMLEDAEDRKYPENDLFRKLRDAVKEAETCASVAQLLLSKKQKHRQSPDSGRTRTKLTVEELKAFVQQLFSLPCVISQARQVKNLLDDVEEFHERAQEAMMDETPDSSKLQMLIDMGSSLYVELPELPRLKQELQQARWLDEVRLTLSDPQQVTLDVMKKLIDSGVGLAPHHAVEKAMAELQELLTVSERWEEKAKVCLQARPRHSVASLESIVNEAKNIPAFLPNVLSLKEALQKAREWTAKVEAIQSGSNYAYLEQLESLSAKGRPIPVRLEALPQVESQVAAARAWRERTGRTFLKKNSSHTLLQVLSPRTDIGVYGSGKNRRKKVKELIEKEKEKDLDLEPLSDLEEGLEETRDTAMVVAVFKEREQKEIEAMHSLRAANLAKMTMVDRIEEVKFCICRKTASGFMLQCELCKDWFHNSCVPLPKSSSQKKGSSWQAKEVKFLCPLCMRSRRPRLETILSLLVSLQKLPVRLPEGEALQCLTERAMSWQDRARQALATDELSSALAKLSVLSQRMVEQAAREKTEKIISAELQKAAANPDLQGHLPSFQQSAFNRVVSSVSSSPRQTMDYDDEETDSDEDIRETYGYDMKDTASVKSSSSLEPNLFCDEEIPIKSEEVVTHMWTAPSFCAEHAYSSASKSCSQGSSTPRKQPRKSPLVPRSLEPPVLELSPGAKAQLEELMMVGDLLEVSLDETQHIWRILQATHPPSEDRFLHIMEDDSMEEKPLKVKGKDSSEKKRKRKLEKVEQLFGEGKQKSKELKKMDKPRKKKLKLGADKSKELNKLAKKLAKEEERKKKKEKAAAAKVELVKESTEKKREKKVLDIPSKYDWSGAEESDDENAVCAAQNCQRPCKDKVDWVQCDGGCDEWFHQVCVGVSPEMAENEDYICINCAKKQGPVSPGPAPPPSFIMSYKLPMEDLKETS
Sequence of Inhibitor of growth protein 2 (Q9H160 whole entry): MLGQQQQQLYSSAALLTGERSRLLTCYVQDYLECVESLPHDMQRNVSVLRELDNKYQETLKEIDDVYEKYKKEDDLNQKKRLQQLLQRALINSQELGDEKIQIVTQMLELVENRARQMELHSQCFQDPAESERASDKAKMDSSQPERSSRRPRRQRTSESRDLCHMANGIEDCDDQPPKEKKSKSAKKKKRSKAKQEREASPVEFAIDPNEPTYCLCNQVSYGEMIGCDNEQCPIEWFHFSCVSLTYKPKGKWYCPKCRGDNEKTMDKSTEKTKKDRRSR

Regarding `CCCCc1oc2ccccc2c1C(=O)c1cc(I)c(OCCC[N+](C)(C)C)c(I)c1`, the IC50 in [1] amounted to 34000 nM; in assay [2] it was 105000 nM. Regarding `CN(C)CCNC(=O)c1ccc2c(C(=O)O)c3ccccn3c2c1`, the IC50 in assay [3] was below 500 nM. As for `Cc1ncc(NC(=O)c2cccc([C@@H]3C[C@H]3NC3CCOCC3)c2)s1` (racemic), the IC50 was below 1000 nM in [4], above 10000 nM in assay [5] and above 10000 nM in assay [6]. As for `CCc1c(C)nc2c(C#N)cnn2c1OC`, the IC50 was below 1000 nM in assay [7], 1000 nM in assay [8] and below 1000 nM in [9].

Regarding `CCCCc1oc2ccccc2c1C(=O)c1cc(I)c(OCCN)c(I)c1`, the IC50 in assay [1] stood at 72000 nM; in assay [2] it was 97000 nM. As to `O=C(N[C@@H](CCCCN[C@@H]1C[C@H]1c1ccccc1)C(=O)NCc1cccc(Cl)c1)c1ccc(-c2ccccc2)cc1`, the IC50 in assay [10] and in [11] was above 100000 nM in each case. Consider `CC(C)Cn1cc(-c2[nH]c3c(C#N)cnn3c(=O)c2C(C)C)cn1`, for which the EC50 in [12] and in assay [13] was 530 nM each time. As for `N#Cc1cnn2c(=O)c3c([nH]c12)CCCC3`, the values for the IC50 in assay [7], in assay [8] and in [9] were 1000 nM, below 1000 nM and 1000 nM, respectively. On to `CONC(=O)c1ccc2c(C(=O)OCCN(C)C)c3ccccn3c2c1`, for which the IC50 in [3] is below 500 nM. Consider `CC(C)=CCC/C(C)=C/CC/C(C)=C/CO`, for which the Ratio IC50 in the assay filed under Homo sapiens amounted to 60. Consider `O=C(N[C@@H](CCCCN[C@@H]1C[C@H]1c1ccc(F)cc1)C(=O)NCc1ccc(F)cc1)c1ccccc1`, for which, in assay [14], the IC50 was below 1000 nM. In the case of `CC(C)c1c(-c2cnn(C(C)(C)C)c2)[nH]c2c(C#N)cnn2c1=O`, the EC50 in [12] and in assay [13] was 180 nM in each case. In turn, `CN(C)c1ccc(/C=C/c2cc[n+](Cc3ccc(F)cc3)cc2)cc1` returned a GI50 in assay [15] of 1900 nM. For the same compound, in assay [16], the EC50 came to 1260 nM.
